Measurements reported in patent publication US20230151025A1, “SUBSTITUTED THIAZOLOPYRIDINES, SALTS THEREOF AND THEIR USE AS HERBICIDALLY ACTIVE SUBSTANCES” (Bayer Aktiengesellschaft, priority 2020, published 2023).

How the values were obtained:
Format in all cases: in vivo
[1] = system: Abutilon theophrasti (ABUTH); assay: Herbicidal pre-emergence action (C), 320 g/ha; conditions: ca. 3 weeks
How it was run: (§1)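 Pre-emergence greenhouse test: visual damage rating at about 3 weeks relative to untreated plants, 100% meaning death and 0% no effect. Compounds, as wettable powders or emulsifiable concentrates with 0.5% additive, were applied at 320 g/ha (600 l water/ha) onto soil covering seeds sown in sandy loam.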

[2] = system: Alopecurus myosuroides (ALOMY); assay: Herbicidal pre-emergence action (C), 320 g/ha; conditions: ca. 3 weeks
How it was run: as §1

Lolium rigidum (LOLRI) [3] = assay: Herbicidal pre-emergence action (C), 320 g/ha; conditions: ca. 3 weeks
How it was run: as §1

[4] = system: Polygonum convolvulus (POLCO); assay: Herbicidal pre-emergence action (C), 320 g/ha; conditions: ca. 3 weeks
How it was run: as §1

Veronica persica (VERPE) [5] = assay: Herbicidal pre-emergence action (C), 320 g/ha; conditions: ca. 3 weeks
How it was run: as §1

[6] = system: Amaranthus retroflexus (AMARE); assay: Herbicidal pre-emergence action (C), 320 g/ha; conditions: ca. 3 weeks
How it was run: as §1

Setaria viridis (SETVI) [7] = assay: Herbicidal pre-emergence action (C), 320 g/ha; conditions: ca. 3 weeks
How it was run: as §1

[8] = system: Matricaria inodora (MATIN); assay: Herbicidal pre-emergence action (C), 320 g/ha; conditions: ca. 3 weeks
How it was run: as §1

[9] = system: Echinochloa crus-galli (ECHCG); assay: Herbicidal pre-emergence action (C), 320 g/ha; conditions: ca. 3 weeks
How it was run: as §1

Avena fatua = assay: Herbicidal pre-emergence action (C), 320 g/ha; conditions: ca. 3 weeks
Text: Seeds of mono- and dicotyledonous weed plants and crop plants were sown, in plastic or organic planting pots, in sandy loam and covered with soil. The compounds according to the invention, formulated in the form of wettable powders (WP) or as emulsifiable concentrates (EC), were applied to the surface of the covering soil as aqueous suspension or emulsion, with the addition of 0.5% of an additive, at an application rate of 600 l of water/ha (converted).
Following treatment, the pots were placed in a greenhouse and kept under optimum growth conditions for the test plants. The visual grading of the damage to the test plants was carried out after ca. 3 weeks in comparison to untreated controls (herbicidal effect in percent (%): 100% effect=plants have died off, 0% effect=as control plants).
Tables C1 to C13 below show the effects of selected compounds of the general formula (I) according to table 1 on various harmful plants and an application rate corresponding to 320 g/ha obtained by the experimental procedure mentioned above.

[10] = system: Alopecurus myosuroides (ALOMY); assay: Herbicidal post-emergence action (D), 320 g/ha; conditions: ca. 3 weeks
How it was run: (§2)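 Post-emergence greenhouse test. Sandy loam; spray at single-leaf stage (2–3 wk after sowing); WP or EC in water + 0.5% additive, 600 l/ha. Visual rating ~3 wk post-spray, % effect vs untreated (0 = control, 100 = dead).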

[11] = system: Polygonum convolvulus (POLCO); assay: Herbicidal post-emergence action (D), 320 g/ha; conditions: ca. 3 weeks
How it was run: as §2

[12] = system: Amaranthus retroflexus (AMARE); assay: Herbicidal post-emergence action (D), 320 g/ha; conditions: ca. 3 weeks
How it was run: as §2

Setaria viridis (SETVI) [13] = assay: Herbicidal post-emergence action (D), 320 g/ha; conditions: ca. 3 weeks
How it was run: as §2

[14] = system: Echinochloa crus-galli (ECHCG); assay: Herbicidal post-emergence action (D), 320 g/ha; conditions: ca. 3 weeks
How it was run: as §2

Poa annua (POAAN) [15] = assay: Herbicidal pre-emergence action (A), 1280 g/ha; conditions: visual grading after ca. 3 weeks vs untreated controls, 100% = plants have died off, 0% = as control plants
How it was run: (§3)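 Pre-emergence soil-surface spray, 600 l/ha water, 0.5% additive, WP or EC formulation. Sandy loam, double sowing per pot, greenhouse under optimum growth. Visual % damage at ~3 wk vs untreated; 100% = plants died off.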

[16] = system: Digitaria sanguinalis (DIGSA); assay: Herbicidal pre-emergence action (A), 1280 g/ha; conditions: visual grading after ca. 3 weeks vs untreated controls, 100% = plants have died off, 0% = as control plants
How it was run: as §3

Stellaria media (STEME) [17] = assay: Herbicidal pre-emergence action (A), 1280 g/ha; conditions: visual grading after ca. 3 weeks vs untreated controls
How it was run: as §3

[18] = system: Amaranthus retroflexus (AMARE); assay: Herbicidal pre-emergence action (A), 1280 g/ha; conditions: visual grading after ca. 3 weeks vs untreated controls
How it was run: as §3

Setaria viridis (SETVI) [19] = assay: Herbicidal pre-emergence action (A), 1280 g/ha; conditions: visual grading after ca. 3 weeks vs untreated controls
How it was run: as §3

[20] = system: Matricaria inodora (MATIN); assay: Herbicidal pre-emergence action (A), 1280 g/ha; conditions: visual grading after ca. 3 weeks vs untreated controls
How it was run: as §3

Poa annua (POAAN) [21] = assay: Herbicidal post-emergence action (B), 1280 g/ha; conditions: rated visually after about 3 weeks vs untreated controls
How it was run: (§4)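 Percent activity is a visual score taken about 3 weeks after treatment, relative to untreated plants, where 100% means the plants died and 0% means no difference from controls. Plants were sprayed on green parts at the one-leaf stage with an aqueous suspension or emulsion containing 0.5% additive at 600 L/ha.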

[22] = system: Digitaria sanguinalis (DIGSA); assay: Herbicidal post-emergence action (B), 1280 g/ha; conditions: rated visually after about 3 weeks vs untreated controls
How it was run: as §4

[23] = system: Abutilon theophrasti (ABUTH); assay: Herbicidal post-emergence action (B), 1280 g/ha; conditions: rated visually after about 3 weeks vs untreated controls
How it was run: as §4

[24] = system: Alopecurus myosuroides (ALOMY); assay: Herbicidal post-emergence action (B), 1280 g/ha; conditions: rated visually after about 3 weeks vs untreated controls
How it was run: as §4

[25] = system: Kochia scoparia (KCHSC; Bassia scoparia); assay: Herbicidal post-emergence action (B), 1280 g/ha
How it was run: as §4

Veronica persica (VERPE) [26] = assay: Herbicidal post-emergence action (B), 1280 g/ha
How it was run: as §4

Stellaria media (STEME) [27] = assay: Herbicidal post-emergence action (B), 1280 g/ha
How it was run: as §4

[28] = system: Amaranthus retroflexus (AMARE); assay: Herbicidal post-emergence action (B), 1280 g/ha; conditions: rated visually after about 3 weeks vs untreated controls
How it was run: as §4

Setaria viridis (SETVI) [29] = assay: Herbicidal post-emergence action (B), 1280 g/ha; conditions: rated visually after about 3 weeks vs untreated controls
How it was run: as §4

[30] = system: Matricaria inodora (MATIN); assay: Herbicidal post-emergence action (B), 1280 g/ha; conditions: rated visually after about 3 weeks vs untreated controls
How it was run: as §4

[31] = system: Echinochloa crus-galli (ECHCG); assay: Herbicidal post-emergence action (B), 1280 g/ha; conditions: rated visually after about 3 weeks vs untreated controls
How it was run: as §4

[32] = system: Abutilon theophrasti (ABUTH); assay: Herbicidal post-emergence action (D), 320 g/ha; conditions: ca. 3 weeks
How it was run: as §2

Veronica persica (VERPE) [33] = assay: Herbicidal post-emergence action (D), 320 g/ha; conditions: ca. 3 weeks
How it was run: as §2

[34] = system: Alopecurus myosuroides (ALOMY); assay: Herbicidal pre-emergence action (A), 1280 g/ha; conditions: visual grading after ca. 3 weeks vs untreated controls, 100% = plants have died off, 0% = as control plants
How it was run: as §3

Lolium rigidum (LOLRI) [35] = assay: Herbicidal pre-emergence action (A), 1280 g/ha; conditions: visual grading after ca. 3 weeks vs untreated controls, 100% = plants have died off, 0% = as control plants
How it was run: as §3

[36] = system: Kochia scoparia (KCHSC; Bassia scoparia); assay: Herbicidal pre-emergence action (A), 1280 g/ha; conditions: visual grading after ca. 3 weeks vs untreated controls
How it was run: as §3

Veronica persica (VERPE) [37] = assay: Herbicidal pre-emergence action (A), 1280 g/ha; conditions: visual grading after ca. 3 weeks vs untreated controls
How it was run: as §3

[38] = system: Echinochloa crus-galli (ECHCG); assay: Herbicidal pre-emergence action (A), 1280 g/ha; conditions: visual grading after ca. 3 weeks vs untreated controls, 100% = plants have died off, 0% = as control plants
How it was run: as §3

Viola tricolor (VIOTR) = assay: Herbicidal pre-emergence action (C), 320 g/ha; conditions: ca. 3 weeks
How it was run: as §1

| Structure (SMILES) | herbicidal effect ALOMY [2] [%] | herbicidal effect LOLRI (Lolium rigidum (LOLRI) [3]) [%] | herbicidal effect VERPE (Veronica persica (VERPE) [5]) [%] | herbicidal effect AMARE [6] [%] | herbicidal effect SETVI (Setaria viridis (SETVI) [7]) [%] | herbicidal effect MATIN [8] [%] | herbicidal effect ECHCG [9] [%] | herbicidal effect ALOMY [10] [%] | herbicidal effect AMARE [12] [%] | herbicidal effect SETVI (Setaria viridis (SETVI) [13]) [%] | herbicidal effect ECHCG [14] [%] | POAAN, herbicidal effect in percent (%) (Poa annua (POAAN) [15]) | herbicidal effect STEME (Stellaria media (STEME) [17]) [%] | herbicidal effect AMARE [18] [%] | herbicidal effect SETVI (Setaria viridis (SETVI) [19]) [%] | herbicidal effect MATIN [20] [%] | herbicidal activity POAAN (Poa annua (POAAN) [21]) [%] | herbicidal effect KCHSC [25] [%] | herbicidal effect VERPE (Veronica persica (VERPE) [26]) [%] | herbicidal effect STEME (Stellaria media (STEME) [27]) [%] | other results |
| --- | --- | --- | --- | --- | --- | --- | --- | --- | --- | --- | --- | --- | --- | --- | --- | --- | --- | --- | --- | --- | --- |
| Fc1ccccc1-c1nc2ncsc2cc1Br [Example I-012] | 100 | 100 | 80 | 90 | 100 | 90 | 100 | 90 | 90 | 90 | 80 |  |  |  |  |  |  |  |  |  | herbicidal effect ABUTH [1]: 80%; herbicidal effect POLCO [4]: 80%; herbicidal effect AVEFA (Avena fatua): 100%; herbicidal effect POLCO [11]: 90% |
| CCc1cc2sc(OC)nc2nc1-c1ccccc1C [Example I-094] |  |  |  |  |  |  | 80 |  |  |  |  | 100 | 100 | 100 | 100 | 100 | 100 | 100 | 100 | 100 | DIGSA, herbicidal effect in percent (%) [16]: 100%; herbicidal activity DIGSA [22]: 100%; herbicidal activity ABUTH [23]: 100%; herbicidal activity ALOMY [24]: 100%; herbicidal activity AMARE [28]: 100%; herbicidal activity SETVI (Setaria viridis (SETVI) [29]): 100%; herbicidal activity MATIN [30]: 100%; herbicidal activity ECHCG [31]: 100%; herbicidal effect ABUTH [32]: 80%; herbicidal effect VERPE (Veronica persica (VERPE) [33]): 90% |
| CC(C)c1cc2scnc2nc1-c1ccccc1F [Example I-184] | 100 | 100 | 80 | 90 | 100 | 80 | 100 | 90 | 80 | 90 | 80 | 100 | 90 | 90 | 100 | 90 | 90 | 90 | 90 | 90 | ALOMY, herbicidal effect in percent (%) [34]: 90%; LOLRI, herbicidal effect in percent (%) (Lolium rigidum (LOLRI) [35]): 100%; herbicidal effect KCHSC [36]: 90%; herbicidal effect VERPE (Veronica persica (VERPE) [37]): 90%; ECHCG, herbicidal effect in percent (%) [38]: 100%; herbicidal effect VIOTR (Viola tricolor (VIOTR)): 80%; herbicidal activity AMARE [28]: 100%; herbicidal activity ECHCG [31]: 90%; herbicidal effect POLCO [11]: 80%; herbicidal effect VERPE (Veronica persica (VERPE) [33]): 90% |
| Cc1cscc1-c1nc2ncsc2cc1C [Example I-193] | 100 | 100 | 80 | 90 | 100 | 80 | 100 | 90 | 80 | 80 | 80 | 100 | 100 | 90 | 100 | 90 | 100 | 90 | 90 | 90 | ALOMY, herbicidal effect in percent (%) [34]: 90%; LOLRI, herbicidal effect in percent (%) (Lolium rigidum (LOLRI) [35]): 100%; herbicidal effect KCHSC [36]: 90%; herbicidal effect VERPE (Veronica persica (VERPE) [37]): 90%; ECHCG, herbicidal effect in percent (%) [38]: 100%; herbicidal effect ABUTH [1]: 80%; herbicidal effect POLCO [4]: 80%; herbicidal effect AVEFA (Avena fatua): 80%; herbicidal activity ABUTH [23]: 90%; herbicidal activity AMARE [28]: 100%; herbicidal activity ECHCG [31]: 100% |
